Data taken from patent US8568972B2, “Substances causing differentiation” (Medicyte GmbH, priority 2000, dated 2013).
Entries after “also recorded” stand apart in the source; their conditions may differ.

Legend:
Assay type in all cases: cell-based, human
U87H-GFP [1] = assay: Flow cytometry (FACS) of H-GFP fusion gene expression under the hCMV promoter in reporter cell line
U87H-GFP [2] = assay: Fluorescence microscopy of H-GFP gene expression; details: for increase in the green fluorescent signal: 48 h; for upregulation of the CMV promoter, visible due to increased GFP fluorescence: very low concentrations, within two days, after removal of hygromycin
Procedure: U87H-GFP and the parent cells were seeded at 1-2×10^5 cells/well on 6-well plates (Nuclon, NUNC), using D-MEM without hygromycin B, and incubated for adhesion for 24 h. This was followed by adding 5-azacytidine and trichostatin A (Sigma Chemicals, Co.) at different final concentrations (2.5-5-10-20-40 μM for Aza; from 10 nM to 3 μM for TSA) to the culture medium. After two days of treatment, fluorescence microscopy and flow cytometry analyses were carried out. Approximately 10^5 cells of each cell line were seeded on polylysine-coated coverslips, treated with different concentrations of Aza and TSA for 48 h and then fixed in 5% formaldehyde at room temperature for 30 min. This was followed by analyzing all samples under a fluorescence microscope (Axiophot, Zeiss, Germany) and recording various images which correspond to the different final concentrations of each medicament (FIG. 1).

U87 [3] = assay: Cell cycle analysis (BrdU incorporation / 7-AAD, FACS), parent line; details: U87, 5 μM Aza, 2 days
Procedure: (§1) U87H-GFP and the parent cells were seeded at 5×10^3/cm^2 in T25 flasks (Nuclon, NUNC), using D-MEM without hygromycin B for both cell lines. Half of the flasks were treated with 5 μM Aza and the other, as a negative control, without any medicaments. After 42 h, BrdU was added to the medium (final concentration of 10 μM), and 6 h later the cells were prepared for cell cycle analysis. The cells were harvested, centrifuged at 500×g for 5 min and fixed in chilled 70% strength ethanol for 20 min. BrdU incorporation into the DNA was detected by using 3×10^5 cells of each Aza-treated or untreated cell line. PBS 1×/0.5% BSA (washing buffer) was added, and the cells were centrifuged at 500×g for 5 min. The pellet was then resuspended in a denaturing solution (HCl 1M, PBS 0.5×BSA 0.5%) and washed again after 20 min. This was followed by re-suspending the pellet in 0.1M sodium borate (Na2B4O7), pH 8.5, for 2 min and then adding the washing buffer. After this passage, the total volume of each sample was divided into two halves (one half being used for the isotype antibody, the other one for the BrdU antibody), centrifuged at 500×g for 5 min, resuspended in the buffer containing the anti-isotype or anti-BrdU monoclonal antibodies (Becton Dickinson) and, after 30 min, washed with PBS 1×/0.5% BSA. The supernatant was discarded and the pellet resuspended in RNAse A (final concentration 100 μg/ml); the DNA was stained by also adding to the solution 7-AAD (Via-PROBE, Becton Dickinson). After 1 h (in the dark), the samples were washed and then resuspended in PBS 1×/0.5% BSA. DNA fluorescence of the nuclei (approximately 10^4 nuclei were analyzed for each cell population) was measured by means of the abovementioned FACScan flow cytometer (Becton Dickinson) and the percentages of cells in the G0 and G1, S, G2 and M phases of the cell cycle were analyzed on the basis of the FACScan software programs.

tumor cells U87 = assay: Change in cell morphology (differentiation); details: high concentrations
U87H-GFP [4] = assay: Cell cycle analysis (BrdU incorporation / 7-AAD, FACS), reporter line; details: 5 μM Aza, 2 days
Procedure: as §1

U87H-GFP [5] = assay: Flow cytometry (FACS) of H-GFP fusion gene expression under the hCMV promoter in reporter cell line; details: 48 h; for increase in the fluorescence intensity mean value: compared to untreated cells
Source text: (§2) U87H-GFP is a cell line derived from the human glioblastoma cell line U87 after stable transfection with plasmid pCMV-hygroEGFP. This plasmid which is integrated into the genomic DNA is derived from PCR-Script™ (Stratagene) and carries a fusion gene downstream of the human CMV promoter. This fusion gene contains the gene for resistance to hygromycin, which is linked to the gene coding for the enhanced green fluorescent protein (EGFP). The resulting gene (called H-GFP) codes for a protein which imparts resistance to hygromycin B and which can be readily detected by fluorescence microscopy and flow cytometry analysis. […] U87H-GFP and the parent line U87 were cultured in Dulbecco's Modified Eagle's Medium, (D-MEM, low glucose, Gibco, BRL) supplemented with 10% fetal calf serum (Seromed), 100 units/ml penicillin, 100 μg/ml streptomycin and 1 μg/ml amphotericine B (Gibco, BRL) at 37° C. in a humidified atmosphere containing 5% CO2. For the U87H-GFP cell line, the culture medium was supplemented with 600 units/ml hygromycin B (Calbiochem). U87H-GFP and the parent cells were seeded at 1-2×10^5 cells/well on 6-well plates (Nuclon, NUNC), using D-MEM without hygromycin B, and incubated for adhesion for 24 h. This was followed by adding 5-azacytidine and trichostatin A (Sigma Chemicals, Co.) at different final concentrations (2.5-5-10-20-40 μM for Aza; from 10 nM to 3 μM for TSA) to the culture medium. After two days of treatment, fluorescence microscopy and flow cytometry analyses were carried out. In order to prepare samples for FACS analysis, cells were incubated in the 6-well plates in 0.05% trypsin containing 0.5 mM EDTA (Gibco, BRL) at 37° C. for 5 min, followed by stopping the trypsin action by adding two volumes of culture medium. The cells were harvested, centrifuged at 500×g for 5 min and resuspended in 1 ml complete D-MEM. In order to stain dead cells, propidium iodide (final concentration 10 μg/ml) was added to each sample. The cells were then again centrifuged and resuspended in phosphate-buffered saline (PBS 1×, pH 7.4), before analyzing them by means of FACS. The cells were analyzed using FACScalibur (Becton Dickinson) with the flow rate corresponding to approximately 500 events/s. In order to exactly define a cell population and to exclude cell debris and aggregates, a region of interest was established on the dot plot (FSC compared to SSC). In the two-parameter histogram of propidium iodide, dead cells were distinguished by comparison to forward angle light scatter (FSC). The fluorescence intensity of individual cells was measured on a logarithmic scale, each logarithmic histogram representing 2×10^4 counted events. The fluorescence intensity mean value (MFI) was the parameter used for defining the increase in the fluorescence intensity in each cell population.

U87 [6] = assay: Flow cytometry (FACS) of background fluorescence in parent cell line (negative control line); details: 48 h, parent cells
Source text: as §2, with “In the two-parameter histogram of propidium iodide, dead cells were distinguished by comparison to forward angle light scatter (FSC).” left out

U87H-GFP [7] = assay: Toxicity, number of living cells observed by FACS; details: final TSA concentrations of more than 3 μM (data not shown)
Procedure: In order to prepare samples for FACS analysis, cells were incubated in the 6-well plates in 0.05% trypsin containing 0.5 mM EDTA (Gibco, BRL) at 37° C. for 5 min, followed by stopping the trypsin action by adding two volumes of culture medium. The cells were harvested, centrifuged at 500×g for 5 min and resuspended in 1 ml complete D-MEM. In order to stain dead cells, propidium iodide (final concentration 10 μg/ml) was added to each sample. The cells were then again centrifuged and resuspended in phosphate-buffered saline (PBS 1×, pH 7.4), before analyzing them by means of FACS.
In order to exactly define a cell population and to exclude cell debris and aggregates, a region of interest was established on the dot plot (FSC compared to SSC). In the two-parameter histogram of propidium iodide, dead cells were distinguished by comparison to forward angle light scatter (FSC). The fluorescence intensity of individual cells was measured on a logarithmic scale, each logarithmic histogram representing 2×10^4 counted events. The fluorescence intensity mean value (MFI) was the parameter used for defining the increase in the fluorescence intensity in each cell population.

[8] = U87H-GFP, listed as Azacytidine

Q: How did the “shift of FACS fluorescence profile toward higher fluorescence intensity” value (U87H-GFP [1]; 0.5 μM Aza, 48 h) turn out when Nc1ncn([C@@H]2O[C@H](CO)[C@@H](O)[C@H]2O)c(=O)n1 [Aza, 5′-azacytidine] was run?
A: The value was “completely superpose those of the untreated cells”.

Q: And the “increase in the fluorescence intensity mean value” (U87H-GFP [1]; 1 μM Aza alone, 48 h, compared to untreated cells)?
A: Its value is “approximately two-fold; also recorded: about a two-fold”.

Q: What about the “shift in the fluorescence intensity average” value (U87H-GFP [1]; Aza retained for 144 h, identical final concentrations, versus 48 h experiment (data not shown)) of the same compound?
A: The value was “same shift”.

Q: And the “increase in the green fluorescent signal” value (U87H-GFP [2]; 20 μM Aza)?
A: Its value is “clearly defined”.

Q: What about the “upregulation of the CMV promoter, visible due to increased GFP fluorescence” value (U87H-GFP [2]) of the same compound?
A: The value was “very strong upregulation”.

Q: What about the “Percentages of cells in G1-G0” value (U87 [3]) of the same compound?
A: Its value is 62.61 ± 0.47%.

Q: And the “Percentages of cells in G2” value (U87 [3])?
A: The value was 13.1 ± 2.36%.

Q: And the “Percentages of cells in M” value (U87 [3])?
A: Its value is 10.58 ± 2.85%.

Q: What about the “Percentages of cells in S” value (U87 [3]) of the same compound?
A: The value was 13.54 ± 1.25%.

Q: What about the “changes in the cell cycle phases” value (U87 [3]) of the same compound?
A: Its value is “significant changes”.

Q: What about the “change in the morphology of the cells” value (tumor cells U87) of the same compound?
A: The value was “a change in the morphology of the cells was observed”.

Q: And the “Percentages of cells in G1-G0” value (U87H-GFP [4]; U87 H-GFP)?
A: Its value is 61.53 ± 4.06 %.

Q: And the “Percentages of cells in G2” value (U87H-GFP [4]; U87 H-GFP)?
A: The value was 8.77 ± 1.44%.

Q: What about the “Percentages of cells in M” value (U87H-GFP [4]; U87 H-GFP) of the same compound?
A: Its value is 16.26 ± 2.83 %.

Q: What about the “Percentages of cells in S” value (U87H-GFP [4]; U87 H-GFP) of the same compound?
A: The value was 13.3 ± 3.26 %.

Q: And the “change in percentage of cells in G2 versus untreated” value (U87H-GFP [4]; U87 H-GFP)?
A: The value was “increased number”.

Q: What about the “effect on different cell cycle phases (apart from G2)” value (U87H-GFP [4]; U87 H-GFP) of the same compound?
A: Its value is “no significant differences”.

Q: And the “change in percentage of cells in G2 versus untreated” value (U87H-GFP [4]; [8])?
A: Its value is “small increase”.

Q: What about the “effect on different cell cycle phases (apart from G2)” value (U87H-GFP [4]; [8]) of the same compound?
A: Its value is “no significant effect”.

Q: What about the “shift of FACS fluorescence profile toward higher fluorescence intensity” value (U87H-GFP [5]; 2.5 μM Aza) of the same compound?
A: Its value is “already clearly visible”.

Q: What about the “increase in the fluorescence intensity mean value” (U87H-GFP [5]; 2.5 μM Aza) of the same compound?
A: Its value is “two-fold”.

Q: What about the “shift of FACS fluorescence profile toward higher fluorescence intensity” value (U87H-GFP [5]; 20 μM Aza) of the same compound?
A: The value was “clearly visible; also recorded: well defined”.

Q: And the “increase in the fluorescence intensity mean value” (U87H-GFP [5]; 20 μM Aza)?
A: The value was “three-fold”.

Q: What about the “shift of FACS fluorescence profile” value (U87 [6]; 20 μM Aza) of the same compound?
A: Its value is “small shift”.

Q: And the “increase in the fluorescence intensity mean value” (U87 [6]; highest concentration used (40 μM Aza))?
A: The value was “approximately two-fold; also recorded: less than twice”.

Q: CC(/C=C/C(=O)NO)=C\[C@@H](C)C(=O)c1ccc(N(C)C)cc1 [TSA, trichostatin A] was tested. Which “toxicity, number of living cells” value (U87H-GFP [7]) did it give?
A: Its value is “highly toxic”.

Q: What about the “increase in the green fluorescent signal” value (U87H-GFP [2]; 1 μM TSA) of the same compound?
A: Its value is “clearly defined”.

Q: What about the “upregulation of the CMV promoter, visible due to increased GFP fluorescence” value (U87H-GFP [2]) of the same compound?
A: The value was “very strong upregulation”.

Q: And the “change in the morphology of the cells” value (tumor cells U87)?
A: The value was “a change in the morphology of the cells was observed”.

Q: And the “shift of FACS fluorescence profile / increase in H-GFP gene expression” value (U87H-GFP [5]; 100 nM TSA)?
A: Its value is “completely superpose those of the untreated cells; also recorded: does not induce in any way an increase”.

Q: What about the “increase in the fluorescence intensity mean value” (U87H-GFP [5]; 200 nM TSA alone) of the same compound?
A: Its value is “approximately two-fold; also recorded: about a two-fold”.

Q: And the “increase in the fluorescence intensity” value (U87H-GFP [5]; 500 nM TSA)?
A: The value was “slight but significant increase”.

Q: What about the “shift of FACS fluorescence profile toward higher fluorescence intensity” value (U87H-GFP [5]; 1 μM TSA) of the same compound?
A: The value was “clearly visible; also recorded: attains a saturation threshold”.

Q: And the “increase in the fluorescence intensity mean value” (U87H-GFP [5]; 1 μM TSA)?
A: Its value is “three-fold”.

Q: What about the “increase in the fluorescence intensity mean value” (U87H-GFP [5]; 3 μM TSA) of the same compound?
A: The value was “four-fold”.

Q: What about the “increase in the fluorescence intensity” value (U87H-GFP [5]; TSA concentrations lower than 500 nM) of the same compound?
A: The value was “not at the lower concentrations used”.

Q: And the “shift of FACS fluorescence profile” value (U87 [6]; 1 μM TSA)?
A: The value was “small shift”.

Q: What about the increase in fluorescence (U87 [6]; 3 μM TSA) of the same compound?
A: The increase in fluorescence was “two-fold”.
